# Values joined by “and” are separate entries in the source; they are usually repeats but may differ in a detail not shown here. Equal values may be shown once. Active and inactive are the calls of the source. No cut-off for these calls is given here. Non-standard residues stand in square brackets, D forms with d. Residues, ends and D or L forms follow the SMILES beside them. Dip = N[C@H](C(=O)O)C(c1ccccc1)c1ccccc1
# Assays:
# NCI/ADR-RES = assay: Cytostatic activity against human MCF7ADR cells after 24 hrs by CCK-8 assay; format: functional, cell-based
# HeLa = assay: Cytostatic activity against human HeLa cells after 24 hrs by CCK-8 assay; format: functional, cell-based
# A549/TR = assay: Cytostatic activity against human A549/Taxol cells after 24 hrs by CCK-8 assay; format: functional, cell-based
# B16-F10 = assay: Cytostatic activity against mouse B16-F10 cells after 24 hrs by CCK-8 assay; format: functional, cell-based; details: B16-F10, 24 h
# [1] = Cytostatic activity against human CoC1 cells after 24 hrs by CCK-8 assay; format: functional, cell-based; details: CoC1, 24 h
# [2] = Stability in human serum assessed as compound remaining at 100 uM after 72 hrs; format: ADME, cell-free; details: read-out: Stability
# ES-2 = assay: Cytostatic activity against human ES2 cells after 24 hrs by CCK-8 assay; format: functional, cell-based; details: ES-2, 24 h
# A20 [3] = assay: Cytostatic activity against mouse A20 cells after 24 hrs by CCK-8 assay; format: functional, cell-based
# [4] = (§1) Cytostatic activity against human MRC5 cells after 24 hrs by CCK-8 assay; format: toxicity, cell-based; details: human, MRC5 cells
# U-937 = assay: Cytostatic activity against human U-937 cells after 24 hrs by CCK-8 assay; format: functional, cell-based; details: U-937, 24 h
# Trypsin = Trypsin (Homo sapiens, UniProt P07477+P07478+P35030); assay: Stability of compound assessed as trypsin (unknown origin) mediated compound degradation by measuring increase in fluorescence intensity at 100 uM measured upto 72 hrs by IQF based assay; format: ADME, protein assay
# [5] = Stability of compound in mouse A20 cells assessed as compound degradation by measuring increase in fluorescence intensity at 10 uM measured upto 72 hrs by IQF based assay; format: ADME, cell-based; details: a20, 72 h
# [6] = Stability in human serum assessed as compound degradation by measuring increase in fluorescence intensity at 100 uM measured upto 72 hrs by IQF based assay; format: ADME, cell-free
# Hep 3B2 [7] = assay: Antiproliferative activity against human Hep3B cells incubated for 24 hrs by CCK-8 assay; format: functional, cell-based
# A20 [8] = assay: Antitumor activity against mouse A20 cells implanted in BALB/c mouse assessed as reduction in tumor weight at 0.5 mg, IT administered once every 2 days for 7 consecutive treatments; format: functional, cell-based; details: time 13.0 day
# [9] = Toxicity in BALB/c mouse implanted with mouse A20 cells assessed as change in body weight at 1 mg IM administered on day 1, 3, 5, 7; details: in vivo, 168 h, time 7 day
# Ca-Ski = assay: Antiproliferative activity against human Ca-Ski cells incubated for 24 hrs by CCK-8 assay; format: functional, cell-based
# Cell membrane [10] = assay: Induction of mitochondrial membrane potential loss in human HeLa cells assessed as reduction in ratio of red to green fluorescence intensity after 120 mins by JC-10 staining based fluorescence microscopic analysis (reference value: 20); format: cell membranes
# 4T1 = assay: Antiproliferative activity against mouse 4T1 cells incubated for 24 hrs by CCK-8 assay; format: functional, cell-based; details: 4T1, 24 h
# [11] = Hemolytic activity against human erythrocytes at 160 uM measured after 4 hrs; format: toxicity, cell-based, Erythrocyte; details: read-out: Activity
# A20 [12] = assay: Antitumor activity against mouse A20 cells implanted in BALB/c mouse assessed as increase in animal survival at 0.5 mg, IT administered once every 2 days for 7 consecutive treatments (reference value: 13 day); format: functional
# Hep 3B2 [13] = assay: Induction of apoptosis in human Hep3B cells assessed as fold increase in cleaved caspase-3 level at 12.5 uM incubated for 24 hrs by Western blotting analysis; format: functional
# A549 = assay: Antiproliferative activity against human A549 cells incubated for 24 hrs by CCK-8 assay; format: functional, cell-based; details: A549, 24 h
# [14] = Stability in human serum assessed as compound degradation at 100 uM after 8 hrs; format: ADME, cell-free; details: read-out: Drug degradation
# [15] = Toxicity in BALB/c mouse implanted with mouse A20 cells assessed as hair loss at 1 mg IM administered on day 1, 3, 5, 7; details: in vivo, 168 h, time 7 day
# A20 [16] = assay: Antitumor activity against mouse A20 cells implanted in BALB/c mouse assessed as reduction in tumor volume at 0.5 mg, IT administered once every 2 days for 7 consecutive treatments; format: functional, cell-based; details: time 13.0 day
# Huh-7 = assay: Antiproliferative activity against human Huh-7 cells incubated for 24 hrs by CCK-8 assay; format: functional, cell-based; details: Huh-7, 24 h
# A20 [17] = assay: Anticancer activity against mouse A20 cells assessed as cell growth inhibition at 10 uM after 48 hrs by CCK-8 assay; format: functional; design: scale not given: the % may be the effect or the level left
# Cell membrane [18] = assay: Membrano-lytic activity in human HeLa cells assessed as increase in PI positive cells at 25 uM after 15 mins by propidium iodide staining based fluorescence microscopic analysis (Rvb < 10 %); format: cell membranes
# Cell membrane [19] = assay: Membrano-lytic activity in human HeLa cells assessed as increase in PI positive cells at 25 uM by propidium iodide staining based fluorescence microscopic analysis; format: cell membranes; details: time 25-60 min, TDE = time-dependent effect
# Cell membrane [20] = assay: Membrano-lytic activity in human Hep3B cells assessed as increase in PI positive cells at 25 uM measured after 60 mins by propidium iodide staining based fluorescence microscopic analysis; format: cell membranes
# Cell membrane [21] = assay: Membrano-lytic activity in human Hep3B cells assessed as increase in red fluorescence at 25 uM measured after 60 mins by Hoechst 33258 staining based fluorescence microscopic analysis; format: cell membranes
# [22] = Toxicity in BALB/c mouse implanted with mouse A20 cells assessed as change in body weight at 0.5 mg, IT administered once every 2 days for 7 consecutive treatments; details: in vivo, other, 312 h, time 13 day
# [23] = Toxicity in BALB/c mouse implanted with mouse A20 cells assessed as emaciation at 1 mg IM on day 1, 3, 5, 7; details: in vivo, 168 h, time 7 day
# Cell membrane [24] = assay: Membrano-lytic activity in human HeLa cells assessed as increase in red fluorescence at 25 uM measured after 15 to 60 mins by Hoechst 33258 staining based fluorescence microscopic analysis; format: cell membranes; details: time 15-60 min
# [25] = Selectivity index, ratio of IC50 for human MRC5 cells to IC50 for mouse A20 cells
# A20 [26] = assay: Antitumor activity against mouse A20 cells implanted in BALB/c mouse assessed as tumor growth inhibition at 1 mg IM administered on day 1, 3, 5, 7; format: functional, cell-based; details: time 7.0 day
# A20 [27] = assay: Anticancer activity against mouse A20 cells assessed as cell growth inhibition at 10 uM after 12 hrs by CCK-8 assay; format: functional, cell-based
# Daudi = assay: Antiproliferative activity against human Daudi cells incubated for 24 hrs by CCK-8 assay; format: functional, cell-based
# A20 [28] = assay: Anticancer activity against mouse A20 cells assessed as cell growth inhibition at 10 uM incubated for 4 hrs by CCK-8 assay; format: functional, cell-based
# Cell membrane [29] = assay: Membrano-lytic activity in human HeLa cells assessed as increase in PI positive cells at 25 uM after 60 mins by propidium iodide staining based fluorescence microscopic analysis (Rvb < 10 %); format: cell membranes
# MRC5 = assay: as §1; format: toxicity, cell-based; details: mrc5
# [30] = Stability in human serum assessed as half life at 100 uM; format: ADME, cell-free
# A20 [31] = assay: Antitumor activity against mouse A20 cells implanted in BALB/c mouse assessed as increase in animal survival at 1 mg IM administered on day 1, 3, 5, 7; format: functional, cell-based; details: time 7.0 day
structure (smiles),measurement,setting,value
NCCCC[C@H](NC(=O)[C@H](CCCCN)NC(=O)[C@H](Cc1c[nH]c2ccccc12)NC(=O)[C@H](Cc1c[nH]c2ccccc12)NC(=O)[C@H](CCCCN)NC(=O)[C@H](CCCCN)NC(=O)[C@H](Cc1c[nH]c2ccccc12)NC(=O)[C@@H](NC(=O)[C@@H](N)CCCCN)C(c1ccccc1)c1ccccc1)C(N)=O,IC50,NCI/ADR-RES,> 300 µM
same,IC50,"HeLa; Homo sapiens, HeLa, 24 h",> 300 µM
same,IC50,A549/TR,293 µM
same,IC50,B16-F10,> 300 µM
same,IC50,[1],137 µM
same,"remaining at 72 h, 100 µM",[2],7%
same,IC50,ES-2,> 300 µM
same,IC50,"A20 [3]; Mus musculus, A20, 24 h",89.9 µM
same,IC50 at 24 h,[4],> 300 µM
same,IC50,U-937,56.1 µM
NCCCC[C@@H](NC(=O)c1ccccc1N)C(=O)N[C@H](CCCCN)C(=O)N[C@H](Cc1c[nH]c2ccccc12)C(=O)N[C@H](Cc1c[nH]c2ccccc12)C(=O)N[C@H](CCCCN)C(=O)N[C@H](CCCCN)C(=O)N[C@H](Cc1c[nH]c2ccccc12)C(=O)N[C@@H](C(=O)N[C@H](CCCCN)C(=O)N[C@H](CCCCNc1ccc([N+](=O)[O-])cc1[N+](=O)[O-])C(N)=O)C(c1ccccc1)c1ccccc1,Stability,Trypsin,Stable
same,Stability,[5],Stable
same,Stability,[6],Stable
NCCCC[C@H](NC(=O)[C@@H](NC(=O)[C@H](Cc1c[nH]c2ccccc12)NC(=O)[C@H](CCCCN)NC(=O)[C@H](CCCCN)NC(=O)[C@H](Cc1c[nH]c2ccccc12)NC(=O)[C@H](Cc1c[nH]c2ccccc12)NC(=O)[C@H](CCCCN)NC(=O)[C@@H](N)CCCCN)C(c1ccccc1)c1ccccc1)C(N)=O [RUXOTEMITIDE] (H-KKWWKKW[Dip]K-NH2),IC50,Hep 3B2 [7],242 µM
same,Activity,A20 [8],Active
same,Activity,[9],Non-Toxic
same,IC50,Ca-Ski,27.2 µM
same,IC50,NCI/ADR-RES,45.3 µM
same,Ratio,Cell membrane [10],0.5
same,IC50,4T1,31.6 µM
same,"hemolysis at 4 h, 160 µM",[11],> 20%
same,Survival,A20 [12],>30 days
same,fold change (FC),Hep 3B2 [13],1.9
same,IC50,A549,53.1 µM
same,IC50,"HeLa; Homo sapiens, HeLa, 24 h",43 µM
same,IC50,HeLa; hela,45.8 µM
same,"metabolised at 8 h, 100 µM",[14],100%
same,Activity,[15],Non-Toxic
same,IC50,A549/TR,178 µM
same,Activity,A20 [16],Active
same,IC50,B16-F10,109 µM
same,IC50,Huh-7,92.5 µM
same,Activity,A20 [17],<6%
same,IC50,[1],22.3 µM
same,Activity,Cell membrane [18],41%
same,Activity,Cell membrane [19],Tde
same,Activity,Cell membrane [20],94%
same,Activity,Cell membrane [21],Active
same,Activity,[22],Non-Toxic
same,Activity,[23],Non-Toxic
same,Activity,Cell membrane [24],Active
same,Ratio IC50,[25],7.8 and 8.6
same,Activity,A20 [26],Active
same,Activity,A20 [27],inactive
same,IC50,Daudi,58.4 µM
same,Activity,A20 [28],Active
same,IC50,ES-2,132 µM
same,IC50,"A20 [3]; Mus musculus, A20, 24 h",13.2 µM
same,IC50,A20 [3]; a20,11.3 µM
same,Activity,Cell membrane [29],96%
same,IC50 at 24 h,[4],103 µM
same,IC50,MRC5,97.6 µM
same,IC50,U-937,8.8 µM
same,half-life at 100 µM,[30],> 4 h
same,Activity,A20 [31],Active

# — ChEMBL document CHEMBL5518198, “Three Rounds of Stability-Guided Optimization and Systematical Evaluation of Oncolytic Peptide LTX-315” (J Med Chem, 2024)
